Measurements reported in PubChem BioAssay (NCI).
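Protocol summary: plate cells (96-well), add compound at 5 concentrations, incubate 48 h, interpolate endpoints linearly. Here, GI50 denotes the concentration required for 50% inhibition of growth. The concentration for full growth arrest is given as TGI.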

How the values were obtained:
Assay in all cases: NCI anticancer screen, dose series, 48 h
PC-3 prostate = tested on: PC-3 prostate
MDA-MB-231 breast = tested on: MDA-MB-231 breast
RPMI-8226 leukemia = tested on: RPMI-8226 leukemia
KM12 colon = tested on: KM12 colon
OVCAR-8 ovarian = tested on: OVCAR-8 ovarian
HT29 colon = tested on: HT29 colon
LOX IMVI melanoma = tested on: LOX IMVI melanoma
K-562 leukemia = tested on: K-562 leukemia
DU-145 prostate = tested on: DU-145 prostate
HL-60(TB) leukemia = tested on: HL-60(TB) leukemia
HCC-2998 colon = tested on: HCC-2998 colon
HCT-15 colon = tested on: HCT-15 colon
SF-539 CNS = tested on: SF-539 CNS
NCI-H460 lung = tested on: NCI-H460 lung
HOP-92 NSCLC = tested on: HOP-92 NSCLC
OVCAR-4 ovarian = tested on: OVCAR-4 ovarian
CAKI-1 renal = tested on: CAKI-1 renal
BT-549 breast = tested on: BT-549 breast
NCI-H226 lung = tested on: NCI-H226 lung
CCRF-CEM leukemia = tested on: CCRF-CEM leukemia
SNB-75 CNS = tested on: SNB-75 CNS
UACC-62 melanoma = tested on: UACC-62 melanoma
786-0 renal = tested on: 786-0 renal
MDA-MB-435 = tested on: MDA-MB-435
SF-295 CNS = tested on: SF-295 CNS
MCF7 breast = tested on: MCF7 breast
OVCAR-5 ovarian = tested on: OVCAR-5 ovarian
SK-MEL-2 melanoma = tested on: SK-MEL-2 melanoma
SK-MEL-28 melanoma = tested on: SK-MEL-28 melanoma
MALME-3M melanoma = tested on: MALME-3M melanoma
ACHN renal = tested on: ACHN renal
IGROV1 ovarian = tested on: IGROV1 ovarian
NCI-H522 lung = tested on: NCI-H522 lung
MOLT-4 leukemia = tested on: MOLT-4 leukemia
A498 renal = tested on: A498 renal
NCI/ADR-RES ovarian = tested on: NCI/ADR-RES ovarian
HS 578T breast = tested on: HS 578T breast
OVCAR-3 ovarian = tested on: OVCAR-3 ovarian
HOP-62 NSCLC = tested on: HOP-62 NSCLC
SN12C renal = tested on: SN12C renal
UACC-257 melanoma = tested on: UACC-257 melanoma
EKVX NSCLC = tested on: EKVX NSCLC
A549 NSCLC = tested on: A549 NSCLC
UO-31 renal = tested on: UO-31 renal
RXF 393 renal = tested on: RXF 393 renal
T-47D breast = tested on: T-47D breast
M14 melanoma = tested on: M14 melanoma
TK-10 renal = tested on: TK-10 renal
SK-OV-3 ovarian = tested on: SK-OV-3 ovarian
SF-268 CNS = tested on: SF-268 CNS
SW-620 colon = tested on: SW-620 colon
SK-MEL-5 melanoma = tested on: SK-MEL-5 melanoma
COLO 205 colon = tested on: COLO 205 colon
SNB-19 CNS = tested on: SNB-19 CNS
U251 CNS = tested on: U251 CNS
NCI-H23 lung = tested on: NCI-H23 lung

COC1C(CO)OC(n2c3ccccc3c3c4c(c5c6ccccc6[nH]c5c32)C(=O)NC4=O)C(O)C1OC(=O)C(N)CCCCN (stereo not given)
GI50 (PC-3 prostate): 1.43 µM
TGI (PC-3 prostate): > 42.3 µM
GI50 (MDA-MB-231 breast): 0.985 µM
TGI (MDA-MB-231 breast): 8 µM
GI50 (RPMI-8226 leukemia): > 15.7 µM
TGI (RPMI-8226 leukemia): > 35.5 µM
GI50 (KM12 colon): 0.499 µM
TGI (KM12 colon): 4.13 µM
GI50 (OVCAR-8 ovarian): 0.49 µM
TGI (OVCAR-8 ovarian): > 50 µM
GI50 (HT29 colon): 2.65 µM
TGI (HT29 colon): > 50 µM
GI50 (LOX IMVI melanoma): 0.261 µM
GI50 (K-562 leukemia): 0.414 µM
TGI (K-562 leukemia): > 50 µM
GI50 (DU-145 prostate): 0.659 µM
TGI (DU-145 prostate): 4.05 µM
GI50 (HL-60(TB) leukemia): 0.231 µM
TGI (HL-60(TB) leukemia): > 50 µM
GI50 (HCC-2998 colon): 1.57 µM
TGI (HCC-2998 colon): 17.8 µM
GI50 (HCT-15 colon): 8.98 µM
TGI (HCT-15 colon): > 39.5 µM
GI50 (SF-539 CNS): 0.165 µM
TGI (SF-539 CNS): 0.821 µM
GI50 (NCI-H460 lung): 3.64 µM
TGI (NCI-H460 lung): 27.1 µM
GI50 (HOP-92 NSCLC): 1.54 µM
TGI (HOP-92 NSCLC): 12.9 µM
GI50 (OVCAR-4 ovarian): 3.83 µM
TGI (OVCAR-4 ovarian): > 50 µM
GI50 (CAKI-1 renal): 1.21 µM
TGI (CAKI-1 renal): 11.7 µM
GI50 (BT-549 breast): 0.807 µM
TGI (BT-549 breast): 5.62 µM
GI50 (NCI-H226 lung): 0.777 µM
TGI (NCI-H226 lung): 9.59 µM
GI50 (CCRF-CEM leukemia): 0.23 µM
TGI (CCRF-CEM leukemia): > 50 µM
GI50 (SNB-75 CNS): 3.62 µM
TGI (SNB-75 CNS): > 22.8 µM
GI50 (UACC-62 melanoma): 0.283 µM
TGI (UACC-62 melanoma): 1.3 µM
GI50 (786-0 renal): 0.653 µM
TGI (786-0 renal): > 21.5 µM
GI50 (MDA-MB-435): 1.07 µM
TGI (MDA-MB-435): 5.04 µM
GI50 (SF-295 CNS): 1.26 µM
TGI (SF-295 CNS): 7.43 µM
GI50 (MCF7 breast): 1.13 µM
TGI (MCF7 breast): > 50 µM
GI50 (OVCAR-5 ovarian): 3.12 µM
TGI (OVCAR-5 ovarian): > 50 µM
GI50 (SK-MEL-2 melanoma): 1.93 µM
TGI (SK-MEL-2 melanoma): 9.91 µM
GI50 (SK-MEL-28 melanoma): 2.67 µM
TGI (SK-MEL-28 melanoma): > 18.2 µM
GI50 (MALME-3M melanoma): 0.11 µM
TGI (MALME-3M melanoma): 0.946 µM
GI50 (ACHN renal): 0.713 µM
TGI (ACHN renal): 3.51 µM
GI50 (IGROV1 ovarian): 0.61 µM
TGI (IGROV1 ovarian): 4.42 µM
GI50 (NCI-H522 lung): 0.168 µM
TGI (NCI-H522 lung): 3.55 µM
GI50 (MOLT-4 leukemia): 0.178 µM
TGI (MOLT-4 leukemia): > 50 µM
GI50 (A498 renal): 0.917 µM
TGI (A498 renal): 3.11 µM
GI50 (NCI/ADR-RES ovarian): > 50 µM
TGI (NCI/ADR-RES ovarian): > 50 µM
GI50 (HS 578T breast): 1.93 µM
TGI (HS 578T breast): 12.2 µM
GI50 (OVCAR-3 ovarian): 0.822 µM
TGI (OVCAR-3 ovarian): 5.1 µM
GI50 (HOP-62 NSCLC): 1.09 µM
TGI (HOP-62 NSCLC): 17.4 µM
GI50 (SN12C renal): 0.405 µM
TGI (SN12C renal): 2.36 µM
GI50 (UACC-257 melanoma): 0.648 µM
TGI (UACC-257 melanoma): > 10.2 µM
GI50 (EKVX NSCLC): 1.69 µM
TGI (EKVX NSCLC): 8.86 µM
GI50 (A549 NSCLC): 3.27 µM
TGI (A549 NSCLC): > 50 µM
GI50 (UO-31 renal): 0.997 µM
TGI (UO-31 renal): 5.5 µM
GI50 (RXF 393 renal): 2.44 µM
TGI (RXF 393 renal): 14.8 µM
TGI (T-47D breast): > 10.3 µM
GI50 (M14 melanoma): 0.689 µM
TGI (M14 melanoma): > 11 µM
GI50 (TK-10 renal): 1.81 µM
TGI (TK-10 renal): 14.6 µM
GI50 (SK-OV-3 ovarian): 2.11 µM
TGI (SK-OV-3 ovarian): > 15.5 µM
GI50 (SF-268 CNS): 0.379 µM
TGI (SF-268 CNS): 14.5 µM
GI50 (SW-620 colon): 0.198 µM
TGI (SW-620 colon): > 16.9 µM
GI50 (SK-MEL-5 melanoma): 0.208 µM
TGI (SK-MEL-5 melanoma): 0.838 µM
GI50 (COLO 205 colon): 1.27 µM
TGI (COLO 205 colon): > 17.2 µM
GI50 (SNB-19 CNS): 1.31 µM
TGI (SNB-19 CNS): > 50 µM
GI50 (U251 CNS): 0.282 µM
TGI (U251 CNS): > 11.5 µM
GI50 (NCI-H23 lung): 2.79 µM
TGI (NCI-H23 lung): > 50 µM
